For 18 compounds, TGI results are on record in PubChem BioAssay (NCI).

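Method: 48-hour compound exposure of cells in 96-well plates, five concentrations, linear interpolation of endpoints. TGI marks complete inhibition of growth.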 A value given as a limit tells only on which side of the number the result lay.

Some test systems named below: SK-OV-3 ovarian; SN12C renal; 786-0 renal; MOLT-4 leukemia; SK-MEL-2 melanoma; HOP-92 NSCLC; M14 melanoma; NCI/ADR-RES ovarian; DU-145 prostate; MDA-MB-435.
Experiment in all cases: NCI tumour cell line growth inhibition, 48 h

On to `COc1cc2c(c(O)c1C)C(=O)CC(c1ccccc1)O2` (configuration not stated), for which the TGI with SK-OV-3 ovarian is greater than 100 µM; in the experiment on SN12C renal it was greater than 100 µM; in the experiment with 786-0 renal, greater than 100 µM; in the experiment on MOLT-4 leukemia, greater than 100 µM; with SK-MEL-2 melanoma, 95.4 µM; in the experiment on HOP-92 NSCLC, 40.8 µM. In the experiment with M14 melanoma, this compound yielded a TGI greater than 10 µM.
Regarding `Clc1ccc2nc3n[nH]c(Cl)c3nc2c1`, the TGI in the experiment on NCI/ADR-RES ovarian, with SK-OV-3 ovarian, with DU-145 prostate, in the experiment on SN12C renal, with 786-0 renal and in the experiment on MOLT-4 leukemia was greater than 100 µM each time. In addition, the TGI in the experiment with SK-MEL-2 melanoma, with M14 melanoma and in the experiment on MDA-MB-435 was greater than 100 µM throughout.
With `Cc1nc2ccccc2c(=O)n1NC(=O)c1ccccc1[N+](=O)[O-]`, the TGI in the experiment on NCI/ADR-RES ovarian, in the experiment with SK-OV-3 ovarian, in the experiment on DU-145 prostate, with SN12C renal, with 786-0 renal and in the experiment on MOLT-4 leukemia was greater than 100 µM each time. In addition, the TGI in the experiment on HOP-92 NSCLC, with M14 melanoma and in the experiment on MDA-MB-435 was greater than 100 µM throughout.
Regarding `C[N+](C)=c1ccc2nc3c(ccc4ccccc43)oc-2c1`, the TGI in the experiment with SK-OV-3 ovarian is 33.5 µM; in the experiment with SN12C renal it was 31.8 µM; in the experiment with 786-0 renal, 28.9 µM; in the experiment with MOLT-4 leukemia, 20.4 µM; in the experiment on SK-MEL-2 melanoma it was 36.6 µM; in the experiment with HOP-92 NSCLC, 32.7 µM. In the experiment on M14 melanoma, this compound showed a TGI of 24.7 µM.
As to `CC1(C)OC2CC3COC(=O)C3CC2O1` (configuration not stated), the TGI with SK-OV-3 ovarian, in the experiment on SN12C renal, in the experiment on 786-0 renal, in the experiment with MOLT-4 leukemia, with SK-MEL-2 melanoma and in the experiment on HOP-92 NSCLC was greater than 100 µM in each case. The TGI in the experiment on M14 melanoma was greater than 100 µM.
Regarding `C/C=C/c1cc2c(c(=O)o1)C(=O)[C@@H](O)[C@H](C)O2`, the TGI is 32.3 µM in the experiment with NCI/ADR-RES ovarian; greater than 84.4 µM with SK-OV-3 ovarian; 29.2 µM with SN12C renal; 49.3 µM in the experiment with MOLT-4 leukemia; 34.2 µM in the experiment with SK-MEL-2 melanoma; 31.2 µM with HOP-92 NSCLC.
As to `CC1(C)Oc2ccc3c(=O)cc(-c4cccs4)oc3c2C1C(=O)O` (configuration not stated), the TGI in the experiment with NCI/ADR-RES ovarian, with SK-OV-3 ovarian, in the experiment with DU-145 prostate, with SN12C renal, in the experiment on 786-0 renal and in the experiment with MOLT-4 leukemia was greater than 100 µM in each case. Moreover, the TGI in the experiment on SK-MEL-2 melanoma, in the experiment with M14 melanoma and with MDA-MB-435 was greater than 100 µM each time.
In the case of `Nc1ccc2nc(Nc3ccc(Cl)c(Cl)c3)cnc2c1`, the TGI was 33 µM in the experiment with SN12C renal; 33.1 µM in the experiment on 786-0 renal; 97.7 µM in the experiment with MOLT-4 leukemia; 37.7 µM in the experiment with SK-MEL-2 melanoma; 27.4 µM in the experiment on M14 melanoma.
As to `COC1=CC(=O)C2C(C1=O)[C@@H]1c3ccccc3OC(C)(C)[C@H]21` (some centres not stated), the TGI in the experiment on SK-OV-3 ovarian is greater than 100 µM; in the experiment on 786-0 renal, 33.6 µM; in the experiment on MOLT-4 leukemia it was 41.2 µM; in the experiment on SK-MEL-2 melanoma, 71.2 µM; in the experiment with HOP-92 NSCLC, 35.4 µM; with M14 melanoma it was 33.8 µM.
As to `CCCCCCCCCCCCCCCCNCC(O)CN` (configuration not stated), the TGI stood at 4.72 µM with NCI/ADR-RES ovarian; 35.9 µM in the experiment with SK-OV-3 ovarian; 12.9 µM in the experiment on SN12C renal; 4.87 µM in the experiment with MOLT-4 leukemia; 36.2 µM in the experiment with SK-MEL-2 melanoma; 9.36 µM in the experiment on HOP-92 NSCLC.
With `N#C/C=c1/c2ccccc2n2nc3ccccc3c12`, the TGI was greater than 100 µM in the experiment on NCI/ADR-RES ovarian; 22.9 µM with SK-OV-3 ovarian; greater than 100 µM in the experiment on DU-145 prostate; greater than 100 µM in the experiment with SN12C renal; 19.8 µM with 786-0 renal; greater than 100 µM with SK-MEL-2 melanoma. Moreover, the TGI in the experiment with M14 melanoma and with MDA-MB-435 was greater than 100 µM each time.
Consider `COC(=O)[C@@H]1[C@H](O)CCC2=C(CC(=O)c3ccoc3)[C@H](C)CC[C@]21C`, for which the TGI with NCI/ADR-RES ovarian, in the experiment on SK-OV-3 ovarian, with SN12C renal, in the experiment with 786-0 renal, in the experiment with SK-MEL-2 melanoma and in the experiment on HOP-92 NSCLC was greater than 50 µM throughout. The TGI in the experiment on M14 melanoma was greater than 50 µM.
As for `CCCCOc1c(C(=O)O)cc(Br)cc1C(=O)O`, the TGI in the experiment on NCI/ADR-RES ovarian, with SK-OV-3 ovarian, in the experiment on SN12C renal, in the experiment with 786-0 renal, with MOLT-4 leukemia and with SK-MEL-2 melanoma was greater than 100 µM in each case. For the same compound, the TGI in the experiment with HOP-92 NSCLC, in the experiment with M14 melanoma and in the experiment with MDA-MB-435 was greater than 100 µM throughout.
As to `CC(=O)NNC(=S)/N=C\c1c(O)c2ccccc2oc1=O`, the TGI with NCI/ADR-RES ovarian, in the experiment with DU-145 prostate, with SN12C renal, in the experiment on 786-0 renal, in the experiment with MOLT-4 leukemia and in the experiment with SK-MEL-2 melanoma was greater than 100 µM throughout. For the same compound, the TGI in the experiment on M14 melanoma and in the experiment on MDA-MB-435 was greater than 100 µM each time.
For the compound `Cc1c(-c2coc(-c3ccccc3)n2)c(=O)n(-c2ccccc2)n1C`, the TGI is greater than 100 µM with SK-OV-3 ovarian; greater than 100 µM in the experiment on SN12C renal; greater than 100 µM in the experiment with 786-0 renal; 86.9 µM with MOLT-4 leukemia; greater than 100 µM with SK-MEL-2 melanoma; greater than 100 µM in the experiment with HOP-92 NSCLC. The TGI in the experiment on M14 melanoma is greater than 100 µM.
Regarding `N#CNC(=NCc1ccccc1)NCCc1c[nH]c2ccccc12`, the TGI in the experiment on SK-OV-3 ovarian was greater than 100 µM; in the experiment with SN12C renal it was greater than 100 µM; with 786-0 renal, 83.5 µM; in the experiment with MOLT-4 leukemia, greater than 100 µM; with M14 melanoma, greater than 100 µM.
On to `N=c1n(CC(=O)NC23CC4CC(CC(C4)C2)C3)c2ccccc2n1CC(=O)NC12CC3CC(CC(C3)C1)C2`, for which the TGI in the experiment with SK-OV-3 ovarian turned out to be 29.1 µM; with SN12C renal it was 3.45 µM; with 786-0 renal, 3.19 µM; in the experiment on MOLT-4 leukemia it was 6 µM; with SK-MEL-2 melanoma, 30.9 µM; in the experiment with HOP-92 NSCLC, 3.06 µM. This compound also yielded a TGI with M14 melanoma of 3.38 µM.
For the compound `N=S(=O)(c1ccccc1)c1ccccc1`, the TGI in the experiment with SK-OV-3 ovarian, in the experiment on SN12C renal, with MOLT-4 leukemia, in the experiment on SK-MEL-2 melanoma and in the experiment on M14 melanoma was greater than 100 µM each time.
